# Reference: patent US6221871A, “Certain aminomethyl biphenyl, aminomethyl phenyl pyridine and aminomethyl phenyl pyrimidine derivatives; novel dopamine receptor subtype selective ligands” (priority 1999, dated 2001)
# Where a name gives a salt, the structure may show the parent alone. Read-outs that look alike come from different tables or passages of the source.
# Experiments:
# [1] = target: T1, human dopamine D4 receptor subtype (Homo sapiens, UniProt P21917); experiment: D4 receptor binding, [3H]YM-09151-2 displacement
# T1 construct: expressed in transfected cells
# T1 sequence (P21917 1-419): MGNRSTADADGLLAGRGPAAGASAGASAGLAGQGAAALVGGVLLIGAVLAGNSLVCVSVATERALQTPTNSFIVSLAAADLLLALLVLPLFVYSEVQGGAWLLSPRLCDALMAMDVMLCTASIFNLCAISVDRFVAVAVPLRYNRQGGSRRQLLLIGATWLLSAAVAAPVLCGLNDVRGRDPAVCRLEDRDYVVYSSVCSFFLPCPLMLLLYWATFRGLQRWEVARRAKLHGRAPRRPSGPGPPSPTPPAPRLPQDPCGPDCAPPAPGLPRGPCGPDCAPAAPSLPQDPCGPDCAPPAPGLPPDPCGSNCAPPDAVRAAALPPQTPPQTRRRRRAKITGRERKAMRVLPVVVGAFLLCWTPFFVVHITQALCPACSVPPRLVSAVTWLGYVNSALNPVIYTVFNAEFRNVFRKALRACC
# Protocol: Assay for D4 receptor binding activity
# Clonal cell lines expressing the human dopamine D4 receptor subtype were harvested in PBS and the cells centrifuged and the pellets stored at -80° C. until used in the binding assay. The pellets were resuspended and the cells lysed at 4° C. in 50 mM Tris pH 7.4 buffer containing 120 mM NaCl, 1 mM EDTA and 5 mM MgCl2. The homogenate is centrifuged at 48000× g for 10 minutes at 4° C. The resulting pellet is resuspended in fresh buffer and centrifuged again. After resuspension of the pellet in fresh buffer a […] aliquot is removed for protein determination. The remaining homogenate is centrifuged as above, the supernatant removed and the pellet stored at 4° C. until needed; at which time it is resuspended to a final concentration of […] with 50 mM Tris buffer (pH 7.4) and 120 mM NaCl just prior to use. Incubations were carried out for 60 minutes at 25° C. in the presence of 0.1 nM [^3 H] YM-09151-2. The incubation was terminated by rapid filtration through Whatman GF/C filters and rinsed with 2×4 ml washes of chiled 50 mM Tris (pH 7.4) and 120 mM NaCl. Non-specific binding was determined with 1 mM spiperone and radioactivity determined by counting in an LKB beta counter. Binding parameters were determined by non-linear least squares regression analysis, from which the inhibition constant Ki could be calculated for each test compound. The binding characteristics of some examples of this patent are shown in Table 2 for the dopamine D4 binding assay.
# [2] = target: D3 receptor; experiment: D3 receptor binding, [3H]raclopride displacement; settings: 0.5 nM 3H-raclopride; recombinantly produced D3 receptors, BHK 293 cells
# Protocol: (§1) Assay for D2 and D3 receptor binding activity
# (§2) Striatial tissue is dissected from adult male Sprague Dawley rats or BHK 293 cells are harvested containing recombinantly produced D2 or D3 receptors. The sample is homogenized in 100 volumes (w/vol) of 0.05 M Tris HCl buffer at 4° C. and pH 7.4. The sample is then centrifuged at 30,000× g and resuspended and rehomogenized. The sample is then centrifuged as described and the final tissue sample is frozen until use. The tissue is resuspended 1:20 (wt/vol) in 0.05 M Tris HCl buffer containing 100 mM NaCl.
# (§3) Incubations are carried out at 48° C. and contain 0.5 ml of tissue sample, 0.5 nM ^3 H-raclopride and the compound of interest in a total incubation of 1.0 ml.
# [3] = target: D2 receptor (Rattus norvegicus, UniProt P61169); experiment: biochemical; assay type: binding
# Protocol: as §1, §2, §3
# [4] = 0.1 nM [3H]YM-09151-2, 60 min, 25° C., clonal cell lines expressing human D4 (Table 2), read-out: Ki
# [5] = 0.5 nM 3H-raclopride, rat striatal homogenates (Table 1), read-out: D2 binding IC50
# D2 receptor, sequence (P61169 whole entry): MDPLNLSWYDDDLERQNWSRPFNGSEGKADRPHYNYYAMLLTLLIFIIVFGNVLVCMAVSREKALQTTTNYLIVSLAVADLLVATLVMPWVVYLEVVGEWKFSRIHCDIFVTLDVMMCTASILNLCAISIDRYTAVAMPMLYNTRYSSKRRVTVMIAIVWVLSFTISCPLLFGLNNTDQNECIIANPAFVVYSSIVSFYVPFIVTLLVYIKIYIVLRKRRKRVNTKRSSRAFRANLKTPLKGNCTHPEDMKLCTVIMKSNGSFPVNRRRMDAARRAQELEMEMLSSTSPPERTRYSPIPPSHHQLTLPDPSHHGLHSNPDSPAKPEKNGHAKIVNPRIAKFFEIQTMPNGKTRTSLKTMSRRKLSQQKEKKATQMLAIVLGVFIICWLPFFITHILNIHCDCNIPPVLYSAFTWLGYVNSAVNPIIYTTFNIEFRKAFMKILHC
Compound,"Ki [1, 4]",IC50 [2],IC50 [3],Ki [1],"IC50 [3, 5]"
"Cc1cc(-c2ccccc2)ccc1CN1CCC(Cc2ccccc2)CC1 [Compound 5, 3-phenyl-6-[(4-benzyl-piperidin-1-yl)methyl]toluenehydrochloride]",286 nM,2490 nM,–,–,–
"CC(c1cccc(-c2ccccc2)c1)N(C)Cc1ccccc1 (centres unmarked) [Compound 6, N-(1-(3-biphenyl)ethyl-N-methylbenzylamine hydrochloride]",> 75 nM,6120 nM,–,–,–
"COc1ccc(CN2CCN(c3ncccn3)CC2)cc1-c1ccccc1 [Compound 2, 2-phenyl-4-[(4-(2-pyrimidinyl)-piperazinyl)methyl]anisole dihydrochloride]",243 nM,–,–,–,–
"c1ccc(CC2CCN(Cc3cccc(-c4ccccc4)n3)CC2)cc1 [Compound 10, 2-Phenyl-6-[(4benzyl-piperidin-1-yl)methyl]-pyridine]",769 nM,1140 nM,–,–,–
"C1=C(c2ccccc2)CCN(Cc2cccc(-c3ccccc3)c2)C1 [Compound 3, 3-[(4-1,2,3,6-tetrahydropyridin-1-yl)methyl]biphenyl hydrochloride]",–,12 nM,12 nM,18 nM,–
"COc1ccccc1N1CCN(C(C)c2cccc(-c3ccccc3)c2)CC1 (centres unmarked) [Compound 7, 1-(2-methoxyphenyl)-4-(1-(3-biphenyl)ethyl)piperazine dihydrochloride]",> 75 nM,342 nM,–,–,–
"c1ccc(CC2CCN(Cc3ccnc(-c4ccccc4)c3)CC2)cc1 [Compound 9, 2-phenyl-4-[(4-benzyl-piperidin-1-yl)methyl]-pyridine dihydrochloride]",56 nM,–,–,–,290 nM
"c1ccc(CC2CCN(Cc3ccnc(-c4ccccc4)n3)CC2)cc1 [Compound 11, 2-phenyl-4-[(4-benzyl-piperidin-1-yl)methyl]-pyrimidine dihydrochloride]",600 nM,1610 nM,–,–,–
"COc1ccc(-c2ccccc2)cc1CN1CCN(c2ncccn2)CC1 [Compound 1, 4phenyl-2-[(4-(2-pyrimidinyl)-piperazinyl)methyl]-anisole dihydrochloride]",32 nM,–,–,–,175 nM
"c1ccc(-c2cccc(CN3CCC(c4ccccc4)CC3)c2)cc1 [Compound 4, 3-[(4phenyl-piperidin-1-yl)methyl]biphenyl hydrochloride]",28 nM,61 nM,–,–,5 nM
"c1ccc(-c2cc(CN3CCN(c4ncccn4)CC3)cc(-c3ccccc3)c2)cc1 [Compound 8, 1-(2-pyrimidyl)-4-((3,5-diphenylphenyl)methyl)piperazine dihydrochloride]",1050 nM,–,–,–,1940 nM
